Source: PubChem BioAssay (NCI)
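Each compound was tested at five concentrations against cells in 96-well plates for 48 hours. GI50 = concentration required for 50% inhibition of growth. TGI: total growth inhibition.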

How the values were obtained:
Assay in all cases: NCI anticancer screen, dose series, 48 h
SR leukemia = tested on: SR leukemia
786-0 renal = tested on: 786-0 renal
OVCAR-5 ovarian = tested on: OVCAR-5 ovarian
SNB-19 CNS = tested on: SNB-19 CNS
NCI/ADR-RES ovarian = tested on: NCI/ADR-RES ovarian
T-47D breast = tested on: T-47D breast
EKVX NSCLC = tested on: EKVX NSCLC
HT29 colon = tested on: HT29 colon
KM12 colon = tested on: KM12 colon
NCI-H522 lung = tested on: NCI-H522 lung
SK-MEL-5 melanoma = tested on: SK-MEL-5 melanoma
ACHN renal = tested on: ACHN renal
SK-MEL-2 melanoma = tested on: SK-MEL-2 melanoma
HOP-62 NSCLC = tested on: HOP-62 NSCLC
OVCAR-8 ovarian = tested on: OVCAR-8 ovarian
MALME-3M melanoma = tested on: MALME-3M melanoma
HCC-2998 colon = tested on: HCC-2998 colon
CCRF-CEM leukemia = tested on: CCRF-CEM leukemia
CAKI-1 renal = tested on: CAKI-1 renal
UO-31 renal = tested on: UO-31 renal
LOX IMVI melanoma = tested on: LOX IMVI melanoma
MDA-MB-231 breast = tested on: MDA-MB-231 breast
OVCAR-3 ovarian = tested on: OVCAR-3 ovarian
MDA-MB-435 = tested on: MDA-MB-435
MCF7 breast = tested on: MCF7 breast
RPMI-8226 leukemia = tested on: RPMI-8226 leukemia
RXF 393 renal = tested on: RXF 393 renal
HS 578T breast = tested on: HS 578T breast
SK-MEL-28 melanoma = tested on: SK-MEL-28 melanoma

CCC(=C/[C@H](C)C/C=C/C(C)=C/[C@@H](C)C(=O)[C@@H](C)[C@H](O)[C@@H](C)CC)/C=C/[C@@H]1OC(=O)C=C[C@@H]1C was tested, and the GI50 (SR leukemia) was less than 5 nM, the TGI (SR leukemia) was 219 nM and the GI50 (786-0 renal) was less than 5 nM. It also gave a TGI (786-0 renal) of less than 5 nM, a GI50 (OVCAR-5 ovarian) of less than 5 nM and a TGI (OVCAR-5 ovarian) of 4740 nM. It also gave a GI50 (SNB-19 CNS) of less than 5 nM, a TGI (SNB-19 CNS) of 3500 nM and a GI50 (NCI/ADR-RES ovarian) of less than 5 nM. The TGI (NCI/ADR-RES ovarian) was 1370 nM, the GI50 (T-47D breast) was less than 5 nM and the TGI (T-47D breast) was 6180 nM. It also gave a GI50 (EKVX NSCLC) of less than 5 nM, a TGI (EKVX NSCLC) of 8330 nM and a GI50 (HT29 colon) of less than 5 nM. It also gave a TGI (HT29 colon) of 5310 nM, a GI50 (KM12 colon) of less than 5 nM and a TGI (KM12 colon) of 5170 nM. The GI50 (NCI-H522 lung) was less than 5 nM, the TGI (NCI-H522 lung) was 81.7 nM and the GI50 (SK-MEL-5 melanoma) was less than 5 nM. For the same compound, the TGI (SK-MEL-5 melanoma) was less than 5 nM, the GI50 (ACHN renal) was less than 5 nM and the TGI (ACHN renal) was 6290 nM. The GI50 (SK-MEL-2 melanoma) was less than 5 nM, the TGI (SK-MEL-2 melanoma) was 3030 nM and the GI50 (HOP-62 NSCLC) was less than 5 nM. The TGI (HOP-62 NSCLC) was 874 nM, the GI50 (OVCAR-8 ovarian) was less than 5 nM and the TGI (OVCAR-8 ovarian) was 6160 nM. It also gave a GI50 (MALME-3M melanoma) of less than 5 nM, a TGI (MALME-3M melanoma) of 253 nM and a GI50 (HCC-2998 colon) of less than 5 nM. It also gave a TGI (HCC-2998 colon) of less than 5 nM, a GI50 (CCRF-CEM leukemia) of less than 5 nM and a TGI (CCRF-CEM leukemia) of 1800 nM. For the same compound, the GI50 (CAKI-1 renal) was less than 5 nM, the TGI (CAKI-1 renal) was 8530 nM and the GI50 (UO-31 renal) was less than 5 nM. It also gave a TGI (UO-31 renal) of 214 nM, a GI50 (LOX IMVI melanoma) of less than 5 nM and a TGI (LOX IMVI melanoma) of 584 nM. It also gave a GI50 (MDA-MB-231 breast) of less than 5 nM, a TGI (MDA-MB-231 breast) of 4640 nM and a GI50 (OVCAR-3 ovarian) of less than 5 nM. For the same compound, the TGI (OVCAR-3 ovarian) was 6300 nM, the GI50 (MDA-MB-435) was less than 5 nM and the TGI (MDA-MB-435) was less than 5 nM. For the same compound, the GI50 (MCF7 breast) was less than 5 nM, the TGI (MCF7 breast) was 158 nM and the GI50 (RPMI-8226 leukemia) was less than 5 nM. The TGI (RPMI-8226 leukemia) was less than 5 nM, the GI50 (RXF 393 renal) was less than 5 nM and the TGI (RXF 393 renal) was 71.1 nM. For the same compound, the GI50 (HS 578T breast) was less than 5 nM, the TGI (HS 578T breast) was 2450 nM and the GI50 (SK-MEL-28 melanoma) was less than 5 nM.
